Measurements: US8735414B2 (priority 2009, dated 2014)

Assays:
[1] = system: bicistronic HCV replicon (replicon RNA, GenBank Accession No. AJ242654); assay: HCV Replicon Assay; format: cell-based; details: Hepatitis C virus, 72 h, read-out: Replicon IC50

Structure (SMILES) | IC50 [1] [nM] | melting point [°C]
COc1ccc2c(c1)c(C#N)c(-c1ncc(S(=O)(=O)NC(CF)CF)cn1)n2C1CCC1 [compound 551, 2-(3-cyano-1-cyclobutyl-5-methoxy-1H-indol-2-yl)-N-(1,3-difluoropropan-2-yl)pyrimidine-5-sulfonamide] | < 500 | 217 to 219
Cc1cc(NS(=O)(=O)C(C)(C)C)ncc1-c1c(C(N)=O)c2cc(F)c(OC(F)F)cc2n1[C@H](C)C1CC1 [compound 1087, 2-{6-[(tert-butylsulfonyl)amino]-4-methylpyridin-3-yl}-1-[(1R)-1-cyclopropylethyl]-6-(difluoromethoxy)-5-fluoro-1H-indole-3-carboxamide] | < 500 | 250 to 254
N#Cc1c(-c2ccc(S(=O)(=O)NC(CF)CF)cn2)n(C2CCCCC2)c2cc(OC(F)(F)F)ccc12 [compound 105, 6-[3-cyano-1-cyclohexyl-6-(trifluoromethoxy)-1H-indol-2-yl]-N-(1,3-difluoropropan-2-yl)pyridine-3-sulfonamide] | < 500 | 146 to 148
N#Cc1c(-c2ncc(S(=O)(=O)NC(CF)CF)cn2)n(C2CCCC2)c2cc(C3CC3)ccc12 [compound 173, 2-(3-cyano-1-cyclopentyl-6-cyclopropyl-1H-indol-2-yl)-N-(1,3-difluoropropan-2-yl)pyrimidine-5-sulfonamide] | < 500 | 215 to 219
C[C@H](NS(=O)(=O)c1ccc(-c2c(C#N)c3cc(Cl)ccc3n2-c2ncccn2)nc1)C(F)(F)F [compound 708, 6-[5-chloro-3-cyano-1-(pyrimidin-2-yl)-1H-indol-2-yl]-N-[(2S)-1,1,1-trifluoropropan-2-yl]pyridine-3-sulfonamide] | < 500 | 193 to 196
Cc1ccc2c(C#N)c(-c3ccc(S(=O)(=O)NC(CF)CF)cn3)n(-c3ccccc3)c2c1 [compound 111, 6-(3-cyano-6-methyl-1-phenyl-1H-indol-2-yl)-N-(1,3-difluoropropan-2-yl)pyridine-3-sulfonamide] | < 500 | 181 to 185
CC(C)(NS(=O)(=O)c1ccc(-c2c(C#N)c3cc(F)ccc3n2-c2ncccn2)nc1)C(F)(F)F [compound 602, 6-[3-cyano-5-fluoro-1-(pyrimidin-2-yl)-1H-indol-2-yl]-N-(1,1,1-trifluoro-2-methylpropan-2-yl)pyridine-3-sulfonamide] | 500 to 2000 | 231 to 234
N#Cc1c(-c2ccc(S(=O)(=O)NC(CF)CF)cn2)n(CC2CC2)c2ccc(F)cc12 [compound 58, 6-[3-cyano-1-(cyclopropylmethyl)-5-fluoro-1H-indol-2-yl]-N-(1,3-difluoropropan-2-yl)pyridine-3-sulfonamide] | < 500 | 162 to 164
N#Cc1c(-c2ccc(S(=O)(=O)Nc3ccccc3)cn2)n(C2CCC2)c2cc(OC(F)F)c(F)cc12 [compound 791, 6-[3-cyano-1-cyclobutyl-6-(difluoromethoxy)-5-fluoro-1H-indol-2-yl]-N-phenylpyridine-3-sulfonamide] | 2000 to 5000 | 178 to 179
C[C@H](NS(=O)(=O)c1ccc(-c2c(C#N)c3ccc(Cl)cc3n2-c2ccccn2)nc1)C1CC1 [compound 488, 6-[6-chloro-3-cyano-1-(pyridin-2-yl)-1H-indol-2-yl]-N-[(1S)-1-cyclopropylethyl]pyridine-3-sulfonamide] | < 500 | 199 to 201
C[C@@H](NS(=O)(=O)c1cnc(-c2c(C#N)c3ccc(OC(F)F)cc3n2C2CCC2)nc1)C(F)(F)F [compound 184, 2-[3-cyano-1-cyclobutyl-6-(difluoromethoxy)-1H-indol-2-yl]-N-[(2R)-1,1,1-trifluoropropan-2-yl]pyrimidine-5-sulfonamide] | < 500 | 112 to 114
C[C@@H](NS(=O)(=O)c1ccc(-c2c(C#N)c3ccc(OC(F)F)cc3n2-c2ccccc2)nc1)C(F)(F)F [compound 554, 6-[3-cyano-6-(difluoromethoxy)-1-phenyl-1H-indol-2-yl]-N-[(2R)-1,1,1-trifluoropropan-2-yl]pyridine-3-sulfonamide] | < 500 | 212 to 213
CC(C)Sc1ccc2c(C#N)c(-c3ccc(S(=O)(=O)N4CCCCC4)cn3)n(C3CCC3)c2c1 [compound 22, 1-cyclobutyl-2-[5-(piperidin-1-ylsulfonyl)pyridin-2-yl]-6-(propan-2-ylsulfanyl)-1H-indole-3-carbonitrile] | 500 to 2000 | 169 to 171
N#Cc1c(-c2ncc(S(=O)(=O)NC(CF)CF)cn2)n(C2CCCC2)c2cc(OC(F)(F)F)ccc12 [compound 178, 2-[3-cyano-1-cyclopentyl-6-(trifluoromethoxy)-1H-indol-2-yl]-N-(1,3-difluoropropan-2-yl)pyrimidine-5-sulfonamide] | < 500 | 181 to 187
Cc1cc2c(cc1O)c(C(N)=O)c(-c1ccc(S(=O)(=O)NC(C)(C)C)cn1)n2C1CCC1 [compound 828, 2-[5-(tert-butylsulfamoyl)pyridin-2-yl]-1-cyclobutyl-5-hydroxy-6-methyl-1H-indole-3-carboxamide] | 2000 to 5000 | 292 to 293
CC(C)n1c(-c2ncc(S(=O)(=O)N[C@@H](C)C(F)(F)F)cn2)c(C#N)c2ccc(Cl)cc21 [compound 418, 2-[6-chloro-3-cyano-1-(propan-2-yl)-1H-indol-2-yl]-N-[(2S)-1,1,1-trifluoropropan-2-yl]pyrimidine-5-sulfonamide] | 500 to 2000 | 241 to 248
Cc1cc2c(cc1F)c(C(N)=O)c(-c1ccc(S(=O)(=O)NC(C)(C)C(F)(F)F)cn1)n2C1CCCC1 [compound 701, 1-cyclopentyl-5-fluoro-6-methyl-2-{5-[(1,1,1-trifluoro-2-methylpropan-2-yl)sulfamoyl]pyridin-2-yl}-1H-indole-3-carboxamide] | < 500 | 211 to 214
C[C@H](NS(=O)(=O)c1ccc(-c2c(C#N)c3ccc(CF)cc3n2C2CCC2)nc1)C(F)(F)F [compound 362, 6-[3-cyano-1-cyclobutyl-6-(fluoromethyl)-1H-indol-2-yl]-N-[(2S)-1,1,1-trifluoropropan-2-yl]pyridine-3-sulfonamide] | < 500 | 205 to 209
Cc1ccc2c(c1)c(C#N)c(-c1ccc(S(=O)(=O)N[C@@H](C)C3CC3)cn1)n2CC1CC1 [compound 525, 6-[3-cyano-1-(cyclopropylmethyl)-5-methyl-1H-indol-2-yl]-N-[(1S)-1-cyclopropylethyl]pyridine-3-sulfonamide] | 500 to 2000 | 181 to 185
C[C@H](NS(=O)(=O)c1ccc(-c2c(C#N)c3ccc(OC(F)(F)F)cc3n2C2CCCC2)nc1)C1CC1 [compound 320, 6-[3-cyano-1-cyclopentyl-6-(trifluoromethoxy)-1H-indol-2-yl]-N-[(1S)-1-cyclopropylethyl]pyridine-3-sulfonamide] | 500 to 2000 | 133 to 134
COc1cc2c(C(N)=O)c(-c3ccc(S(=O)(=O)N[C@H](C)C(F)(F)F)cn3)n(C3CCCC3)c2cc1C [compound 834, 1-cyclopentyl-5-methoxy-6-methyl-2-(5-{[(2R)-1,1,1-trifluoropropan-2-yl]sulfamoyl}pyridin-2-yl)-1H-indole-3-carboxamide] | 2000 to 5000 | 273 to 275
C[C@@H](NS(=O)(=O)c1ccc(-c2c(C#N)c3cc(F)c(C4CC4)cc3n2C2CCC2)nc1)C(F)(F)F [compound 631, 6-(3-cyano-1-cyclobutyl-6-cyclopropyl-5-fluoro-1H-indol-2-yl)-N-[(2R)-1,1,1-trifluoropropan-2-yl]pyridine-3-sulfonamide] | < 500 | 190 to 194
CC(C)(C)NS(=O)(=O)c1ccc(-c2c(C#N)c3cc(F)c(C4CC4)cc3n2C2CCCC2)nc1 [compound 832, N-tert-butyl-6-(3-cyano-1-cyclopentyl-6-cyclopropyl-5-fluoro-1H-indol-2-yl)pyridine-3-sulfonamide] | < 500 | 186 to 188
CCc1ccc2c(c1)c(C#N)c(-c1ccc(S(=O)(=O)NC(CF)CF)cn1)n2C1CCC1 [compound 258, 6-(3-cyano-1-cyclobutyl-5-ethyl-1H-indol-2-yl)-N-(1,3-difluoropropan-2-yl)pyridine-3-sulfonamide] | < 500 | 163 to 164
CC(C)n1c(-c2ncc(S(=O)(=O)N[C@@H](C)C(F)(F)F)cn2)c(C#N)c2cc(F)ccc21 [compound 546, 2-[3-cyano-5-fluoro-1-(propan-2-yl)-1H-indol-2-yl]-N-[(2S)-1,1,1-trifluoropropan-2-yl]pyrimidine-5-sulfonamide] | 500 to 2000 | 172 to 176
CCc1cc2c(cc1F)c(C(N)=O)c(-c1ccc(S(=O)(=O)N[C@@H](C)C(F)(F)F)cn1)n2-c1ccncc1 [compound 1045, 6-ethyl-5-fluoro-1-(pyridin-4-yl)-2-(5-{[(2S)-1,1,1-trifluoropropan-2-yl]sulfamoyl}pyridin-2-yl)-1H-indole-3-carboxamide] | < 500 | 219 to 224
N#Cc1c(-c2ncc(S(=O)(=O)NC(CF)CF)cn2)n(C2CCC2)c2cc(OC(F)(F)F)ccc12 [compound 177, 2-[3-cyano-1-cyclobutyl-6-(trifluoromethoxy)-1H-indol-2-yl]-N-(1,3-difluoropropan-2-yl)pyrimidine-5-sulfonamide] | < 500 | 202 to 204
Cc1ccc2c(C#N)c(-c3ccc(S(=O)(=O)NC(C)C)cn3)n([C@@H]3CCOC3)c2c1 [compound 55, 6-{3-cyano-6-methyl-1-[(3R)-tetrahydrofuran-3-yl]-1H-indol-2-yl}-N-(propan-2-yl)pyridine-3-sulfonamide] | < 500 | 164 to 167
C[C@H](NS(=O)(=O)c1cnc(-c2c(C#N)c3cc(Cl)ccc3n2C2CCCCC2)nc1)C(F)(F)F [compound 464, 2-(5-chloro-3-cyano-1-cyclohexyl-1H-indol-2-yl)-N-[(2S)-1,1,1-trifluoropropan-2-yl]pyrimidine-5-sulfonamide] | 500 to 2000 | 253 to 255
